Read-outs that look alike come from different tables or passages of the source.
Experiments:
[1] = test system: human GR (MMTV-LUC reporter gene, A549 cells); assay: Trans-Activation Modulation of Glucocorticoid Receptor Assay (GRAMMER), MMTV-LUC reporter in A549 cells; format: cell-based; conditions: for EC50: MMTV-LUC reporter, agonist mode, read-out: Transactivation A549 Cells GRAMMER IP (inflection point); for Transactivation A549 Cells GRAMMER Emax / Emax: Emax relative to the activity obtained with 300 nM dexamethasone; for Emax: read-out: Transactivation A549 Cells GRAMMER Emax
Excerpt: Trans-Activation Modulation of Glucocorticoid Receptor Assay
This assay assesses the ability of test compounds to control transcription from the MMTV-LUC reporter gene in lung adenocarcinoma A549 cells or HeLa cells, a human […] cell line that naturally expresses the human GR. The assay measures induction of a modified MMTV LTR/promoter linked to the LUC reporter gene.
The routine transient assay consists of plating 7,000-25,000 cells/well of a white, clear-bottom 96-well plate. Alternatively, 384-well plates can be used at a cell concentration of 10,000 /well. The media that the cells are plated in is “exponential growth medium” which consists of phenol red-free RPMI1640 containing 10%FBS, 4 mM L-glutamine, 20 mM HEPES, 10 μg/mL human insulin, and 20 μg/mL gentamicin. Incubator conditions are 37° C. and 5% CO2. The transfection is done in batch mode. The cells are trypsinized and counted to the right cell number in the proper amount of fresh media. It is then gently mixed with the FuGene6/DNA mix and plated onto the 96 or 384-well plate, all the wells receive 100 μL or 40 μL, respectively, of medium +lipid/DNA complex then incubated 37° C. overnight. The transfection cocktail consists of serum-free OptiMEM, FuGene6 reagent and DNA. The manufacturer's (Roche Biochemical) protocol for cocktail setup is as follows: The lipid to DNA ratio is approximately 2.5:1 and the incubation time is 20 min at room temperature. Sixteen to 24 hours after transfection, the cells are treated with dexamethasone to a final concentration of 10 nM as well as the compound of interest, such that final DMSO (vehicle) concentration is equal to or less than 1%. Each plate also contains samples that are treated with 10 nM dexamethasone alone, which is used as the 100% activity control. The cells are exposed to the compounds for 24 hours. After 24 hours, the cells are lysed by a Promega cell culture lysis buffer for approximately 30 min and then the luciferase activity in the extracts is assayed in the 96-well format luminometer. In 384-well format, Steady-Glo (Promega) or Steady-Lite (PerkinElmer) can be used by adding an equal volume of reagent to the media present in each well. Activity induced by 10 nM dexamethasone alone is set at 100% activity. Antagonist activity is calculated by determining the decrease in dexamethasone-induced activity in response to compound treatment relative to samples that were treated with dexamethasone alone. Results are expressed as % inhibition of 10 nM dexamethasone activity or as fold of 10 nM dexamethasone activity. This transactivation assay can be performed in an agonist and antagonist mode to identify these different activities.
Activity of test compounds is calculated as the Emax relative to the activity obtained with 300 nM dexamethasone. Activity of test compounds is calculated as the Emax relative to the activity obtained with 300 nM DEX. The exemplified tissue selective glucocorticoid receptor modulators of the present invention display agonist activity in this assay of greater than 5% and less than 100%, and maximal transactivation activity less then maximal transrepression activity. […]

[2] = test system: human GR (TNFα promoter β-lactamase reporter, U937 cells); assay: Transrepression Assay (GITAR), TNFα-β-lactamase reporter in U937 cells; format: cell-based; conditions: for EC50: TNFα-β-lactamase reporter, PMA/LPS stimulated, read-out: Transrepression U937 Cells GITAR IP (inflection point); for Transrepression U937 Cells GITAR Emax / Emax: activity repressed by 100 nM dexamethasone set as 100%
Excerpt: This assay assesses the ability of test compounds to control transcription from the TNFα-β-lactamase reporter gene in U937 cells, a human myelomonocytic leukemia cell line that naturally expresses the human GR. The assay measures compound dependent-repression of the TNFa promoter linked to a reporter gene.
The human U937cells that had been stablely transfected with the TNF-α promoter driving β-lactamase are used for this assay. U937 cells contain an endogenous glucocorticoid receptor (GR). Cells are maintained in RPMI 1640 Growth medium (Gibco Cat#11875-093) containing 25 mM HEPES, 10% FBS, 2 mM L-Glutamine, 1 mM Sodium pyruvate, 25 μg/ml Gentamicin (Gibco Cat#15710-064), 1:1000 2-Mercaptoethanol (Gibco Cat#21985-023) and 0.8 mg/ml G418 (Gibco Cat#10131-027). The density of the cells in the flask needs to be about 1×106−3×10^6/ml at the time of harvest. Usually, the cells are split to 1.2˜1.4×10^5/ml (1:10) 3 days prior to the assay. 50,000 cells/well are plated in 96 well black-walled plates the day of assay. Test compounds are added 10 μL/well, and cells are incubated at 37° C. for 30-45 min. For assaying compounds, first dilute 1:10 in DMSO to make 1 mM, then further dilute 1:100 in medium to make 10 × stock prior to adding to the cells. Add 50 ng/ml PMA (Sigma, cat# P8139) 10 μL/well to a final concentration 5 ng/ml, and 1 μg/ml LPS (Sigma, cat# L4130) 10 μL/well to a final concentration 100 ng/ml. Incubate cells at […] overnight for˜18 hr. PMA is stored frozen as 100 μg/ml stock in DMSO. Dilute 1:10 in DMSO for a working stock of 10 μg/ml and store at −20° C. For assaying, dilute the 10 μg/ml working stock 1:200 in medium to make a 10× solution (50 ng/ml). Store frozen LPS at 1 mg/ml in PBS, dilute 1:1000 in medium to make 10× (1 μg/ml) for the assay. Add 6× loading buffer (CCF2-AM) 20 μL/well, and incubate at room temperature for 70˜90 min. […] The activity repressed by 100 nM dexamethasone alone is set as 100% activity.

[3] = Homo sapiens, U-937, U937 cells

EC50 ([1]; A549 cells) [nM] | EC50 ([2]; U937 cells) [nM] | EC50 ([1]; Homo sapiens, A549, A549 cells) [nM] | EC50 [2, 3] [nM] | Structure (SMILES) | Transactivation A549 Cells GRAMMER Emax ([1]; A549 cells) [%] | Transrepression U937 Cells GITAR Emax ([2]; U937 cells) [%] | Emax ([1]; Homo sapiens, A549, A549 cells) [%] | Emax [2, 3] [%]
811 | 1720 |  |  | C[C@]12Cc3cnn(-c4cccnc4)c3C=C1CC[C@@H]2CC(O)c1ccccc1 (single isomer, unassigned) [Example 1b] | 8.5 | 49.3 |  | 
797 | 548 |  |  | COc1cccc(C(O)C[C@H]2CCC3=Cc4c(cnn4-c4cccnc4)C[C@@]32C)c1 (single isomer, unassigned) [Example 4b] | 15.3 | 47.0 |  | 
301 | 229 |  |  | COc1ccccc1C(O)C[C@H]1CCC2=Cc3c(cnn3-c3cccnc3)C[C@@]21C (single isomer, unassigned) [Example 2a] | 68.5 | 79.5 |  | 
343 | 277 |  |  | C[C@]12Cc3cnn(-c4cccnc4)c3C=C1CC[C@@H]2CC(O)c1ccccc1 (single isomer, unassigned) [Example 1a] | 29.7 | 75.4 |  | 
 |  | 160 | 200 | COc1ccc(C(O)C[C@H]2CCC3=Cc4c(cnn4-c4cccnc4)C[C@@]32C)cn1 (stereo partly drawn) [Example 3, 1-(6-methoxypyridin-3-yl)-2-[(4αR,5R)-4α-methyl-1-(pyridin-3-yl)-1,4,4α,5,6,7-hexahydrocyclopenta[f]indazol-5-yl] ethanol] |  |  | 101 | 85.2
 |  | 53.4 | 20.7 | COc1ccc(C(O)C[C@H]2CCC3=Cc4c(cnn4-c4cccnc4)C[C@@]32C)cc1 (stereo partly drawn) [Example 5, 1-(4-methoxyphenyl)-2-[(4αR,5R)-4α-methyl-1-(pyridin-3-yl)-1,4,4α,5,6,7-hexahydrocyclopenta[f]indazol-5-yl] ethanol] |  |  | 90.7 | 87.3
 | 558 | 1170 |  | C[C@]12Cc3cnn(-c4cccnc4)c3C=C1CC[C@@H]2CC(O)c1ccccn1 (single isomer, unassigned) [Example 6a] |  |  | 1.6 | 16.6
812 | 1160 |  |  | COc1ccccc1C(O)C[C@H]1CCC2=Cc3c(cnn3-c3cccnc3)C[C@@]21C (single isomer, unassigned) [Example 2b] | 21.5 |  |  | 73.9
316 | 393 |  |  | CC(O)(C[C@H]1CCC2=Cc3c(cnn3-c3cccnc3)C[C@@]21C)c1ccccc1 (single isomer, unassigned) [Example 7b] | 20.0 | 65.9 |  | 
1430 | 1380 |  |  | C[C@]12Cc3cnn(-c4cccnc4)c3C=C1CC[C@@H]2CC(O)c1ccccn1 (single isomer, unassigned) [Example 6b] | 2.2 | 30.0 |  | 
 | 114 | 472 |  | COc1cccc(C(O)C[C@H]2CCC3=Cc4c(cnn4-c4cccnc4)C[C@@]32C)c1 (single isomer, unassigned) [Example 4a] | 47.7 | 74.8 |  | 
74.3 | 78.7 |  |  | CC(O)(C[C@H]1CCC2=Cc3c(cnn3-c3cccnc3)C[C@@]21C)c1ccccc1 (single isomer, unassigned) [Example 7a] | 53.1 |  |  | 84.2

— US20120172397A1, “HEXAHYDROCYCLOPENTA[f]INDAZOLE 5-YL ETHANOLS AND DERIVATIVES THEREOF AS SELECTIVE GLUCOCORTICOID RECEPTOR MODULATORS” (MERCK SHARP & DOHME CORP., priority 2009, published 2012)
